Measured values from patent publication US5721229A, “Soluble forms of cephalosporins and treatment of animals” (Veterinary Pharmacy Corporation, priority 1995, dated 1998).
Like-named read-outs stand apart in the source and are kept apart here.

Key:
[1] = cited from earlier work
[2] = pH 4.5; cited from earlier work
all bacteria = experiment: Sensitivity results by the University Diagnostic Laboratory, all bacteria (Example 6 table)
Description: (§1) The mixture and solution of the invention was tested in 100 to 200 pound pigs. […] A 30 pig pen was used as a non-treated control group to measure the efficacy of the treatment.

[3] = system: Actinobacillis pleuropneumonia Type 7
Description: as §1

Description for Pasturella multocida: as §1
Excerpt for Step suis type 2: A farm was selected which was known to have problems with Step suis type 2 in its nursery pigs. The experiment involved two groups of 30 pigs, each group was in the same room, but in separate pens. Each pig was individually tagged and a tonsilar swab was done on day one and day seven. Cultures were run on all the swabs.
Description for Streptococcus suis Sp.: as §1

CC1(C)S[C@@H]2[C@H](NC(=O)[C@H](N)c3ccccc3)C(=O)N2[C@H]1C(=O)O [ampicillin]
pH on dissolution with sodium carbonate ([1]; 95 mole-% of sodium carbonate): 8.3 | Mole-% of sodium carbonate sufficient to dissolve ([1]; pH 8.3): 95 mole-%

CC1=C(C(=O)O)N2C(=O)[C@@H](NC(=O)[C@H](N)c3ccccc3)[C@H]2SC1 [cephalexin monohydrate]
Neutrally charged fraction [2]: 100%

CC1=C(C(=O)O)N2C(=O)[C@@H](NC(=O)[C@H](N)c3ccccc3)[C@H]2SC1 [cephalexin, α-aminobenzyl-3-desacetoxycephalosporin]
Sensitivity results by the University Diagnostic Laboratory (all bacteria; control group of 30 pigs): sensitive to cephalexin | Sensitivity results by the University Diagnostic Laboratory (all bacteria; treated group of 970 pigs): sensitive to cephalexin | Sensitivity to cephalexin (Pasturella multocida): showed sensitivity | Sensitivity to cephalexin [3]: showed sensitivity | Sensitivity of the organism (Step suis type 2; isolates from treated group): sensitive | Sensitivity of the organism (Step suis type 2; isolates from untreated control group): sensitive | Sensitivity to cephalexin (Streptococcus suis Sp.): showed sensitivity

CC1(C)S[C@@H]2[C@H](NC(=O)[C@H](N)c3ccccc3)C(=O)N2[C@H]1C(=O)O [sodium ampicillin]
pH of aqueous solution ([1]; aqueous solution): ~9.5
